In PubChem BioAssay (NCI):
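The compound was tested at five concentrations on cells cultured in 96-well plates, with a 48-hour exposure period. TGI denotes the concentration required for complete inhibition of growth.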

Key:
Assay in all cases: NCI-60 cell line screen, 48 h
NCI-H460 lung = system: NCI-H460 lung
HOP-92 NSCLC = system: HOP-92 NSCLC
HCT-116 colon = system: HCT-116 colon
SW-620 colon = system: SW-620 colon
SR leukemia = system: SR leukemia
NCI-H226 lung = system: NCI-H226 lung
MDA-MB-435 = system: MDA-MB-435
NCI-H23 lung = system: NCI-H23 lung
HCC-2998 colon = system: HCC-2998 colon
SF-268 CNS = system: SF-268 CNS
HS 578T breast = system: HS 578T breast
HL-60(TB) leukemia = system: HL-60(TB) leukemia
K-562 leukemia = system: K-562 leukemia
A549 NSCLC = system: A549 NSCLC
HCT-15 colon = system: HCT-15 colon
OVCAR-8 ovarian = system: OVCAR-8 ovarian
MALME-3M melanoma = system: MALME-3M melanoma
HOP-62 NSCLC = system: HOP-62 NSCLC
COLO 205 colon = system: COLO 205 colon
SNB-75 CNS = system: SNB-75 CNS
RXF 393 renal = system: RXF 393 renal
PC-3 prostate = system: PC-3 prostate
SNB-19 CNS = system: SNB-19 CNS
MDA-N = system: MDA-N
SF-295 CNS = system: SF-295 CNS
SK-MEL-5 melanoma = system: SK-MEL-5 melanoma
DU-145 prostate = system: DU-145 prostate
CAKI-1 renal = system: CAKI-1 renal
MCF7 breast = system: MCF7 breast
RPMI-8226 leukemia = system: RPMI-8226 leukemia
UACC-257 melanoma = system: UACC-257 melanoma
MDA-MB-231 breast = system: MDA-MB-231 breast
EKVX NSCLC = system: EKVX NSCLC
ACHN renal = system: ACHN renal
NCI-H522 lung = system: NCI-H522 lung
UO-31 renal = system: UO-31 renal
MOLT-4 leukemia = system: MOLT-4 leukemia
BT-549 breast = system: BT-549 breast
HT29 colon = system: HT29 colon
CCRF-CEM leukemia = system: CCRF-CEM leukemia
786-0 renal = system: 786-0 renal
OVCAR-3 ovarian = system: OVCAR-3 ovarian
LOX IMVI melanoma = system: LOX IMVI melanoma
KM12 colon = system: KM12 colon
U251 CNS = system: U251 CNS
TK-10 renal = system: TK-10 renal
SK-OV-3 ovarian = system: SK-OV-3 ovarian
NCI/ADR-RES ovarian = system: NCI/ADR-RES ovarian
OVCAR-5 ovarian = system: OVCAR-5 ovarian
M14 melanoma = system: M14 melanoma
SF-539 CNS = system: SF-539 CNS
UACC-62 melanoma = system: UACC-62 melanoma
SK-MEL-28 melanoma = system: SK-MEL-28 melanoma
IGROV1 ovarian = system: IGROV1 ovarian
A498 renal = system: A498 renal
SN12C renal = system: SN12C renal
OVCAR-4 ovarian = system: OVCAR-4 ovarian

Cc1cs/c(=N\C(P(=O)(O)O)P(=O)(O)O)n1C
TGI (NCI-H460 lung): > 100 µM | TGI (HOP-92 NSCLC): > 100 µM | TGI (HCT-116 colon): > 100 µM | TGI (SW-620 colon): > 100 µM | TGI (SR leukemia): > 100 µM | TGI (NCI-H226 lung): > 100 µM | TGI (MDA-MB-435): > 100 µM | TGI (NCI-H23 lung): > 100 µM | TGI (HCC-2998 colon): > 100 µM | TGI (SF-268 CNS): > 100 µM | TGI (HS 578T breast): 47.8 µM | TGI (HL-60(TB) leukemia): > 100 µM | TGI (K-562 leukemia): > 100 µM | TGI (A549 NSCLC): > 100 µM | TGI (HCT-15 colon): > 100 µM | TGI (OVCAR-8 ovarian): > 100 µM | TGI (MALME-3M melanoma): > 100 µM | TGI (HOP-62 NSCLC): > 100 µM | TGI (COLO 205 colon): > 100 µM | TGI (SNB-75 CNS): > 100 µM | TGI (RXF 393 renal): > 100 µM | TGI (PC-3 prostate): > 100 µM | TGI (SNB-19 CNS): > 100 µM | TGI (MDA-N): > 100 µM | TGI (SF-295 CNS): > 100 µM | TGI (SK-MEL-5 melanoma): > 100 µM | TGI (DU-145 prostate): > 100 µM | TGI (CAKI-1 renal): > 100 µM | TGI (MCF7 breast): > 100 µM | TGI (RPMI-8226 leukemia): > 100 µM | TGI (UACC-257 melanoma): > 100 µM | TGI (MDA-MB-231 breast): > 100 µM | TGI (EKVX NSCLC): > 100 µM | TGI (ACHN renal): > 100 µM | TGI (NCI-H522 lung): > 100 µM | TGI (UO-31 renal): > 100 µM | TGI (MOLT-4 leukemia): > 100 µM | TGI (BT-549 breast): > 100 µM | TGI (HT29 colon): > 100 µM | TGI (CCRF-CEM leukemia): > 100 µM | TGI (786-0 renal): > 100 µM | TGI (OVCAR-3 ovarian): > 100 µM | TGI (LOX IMVI melanoma): > 100 µM | TGI (KM12 colon): > 100 µM | TGI (U251 CNS): > 100 µM | TGI (TK-10 renal): > 100 µM | TGI (SK-OV-3 ovarian): > 100 µM | TGI (NCI/ADR-RES ovarian): > 100 µM | TGI (OVCAR-5 ovarian): > 100 µM | TGI (M14 melanoma): > 100 µM | TGI (SF-539 CNS): > 100 µM | TGI (UACC-62 melanoma): > 100 µM | TGI (SK-MEL-28 melanoma): > 100 µM | TGI (IGROV1 ovarian): > 100 µM | TGI (A498 renal): > 100 µM

COc1cc(OC)c(CSCC(NC(=O)OCC2c3ccccc3-c3ccccc32)C(=O)O)c(OC)c1 (stereo not drawn)
TGI (HOP-92 NSCLC): > 10 µM | TGI (HCT-116 colon): > 10 µM | TGI (SW-620 colon): > 10 µM | TGI (NCI-H226 lung): > 10 µM | TGI (MDA-MB-435): > 10 µM | TGI (NCI-H23 lung): > 10 µM | TGI (SF-268 CNS): > 10 µM | TGI (A549 NSCLC): > 10 µM | TGI (HCT-15 colon): > 10 µM | TGI (OVCAR-8 ovarian): > 10 µM | TGI (COLO 205 colon): > 10 µM | TGI (SNB-75 CNS): > 10 µM | TGI (RXF 393 renal): > 10 µM | TGI (PC-3 prostate): > 10 µM | TGI (SN12C renal): > 10 µM | TGI (SNB-19 CNS): > 10 µM | TGI (MDA-N): > 10 µM | TGI (SF-295 CNS): > 10 µM | TGI (SK-MEL-5 melanoma): > 10 µM | TGI (DU-145 prostate): > 10 µM | TGI (CAKI-1 renal): > 10 µM | TGI (MDA-MB-231 breast): > 10 µM | TGI (EKVX NSCLC): > 10 µM | TGI (ACHN renal): > 10 µM | TGI (UO-31 renal): > 10 µM | TGI (HT29 colon): > 10 µM | TGI (OVCAR-4 ovarian): > 10 µM | TGI (OVCAR-3 ovarian): > 10 µM | TGI (KM12 colon): > 10 µM | TGI (U251 CNS): > 10 µM | TGI (TK-10 renal): > 10 µM | TGI (NCI/ADR-RES ovarian): > 10 µM | TGI (OVCAR-5 ovarian): > 10 µM | TGI (M14 melanoma): > 10 µM | TGI (SF-539 CNS): > 10 µM | TGI (SK-MEL-28 melanoma): > 10 µM | TGI (IGROV1 ovarian): > 10 µM | TGI (A498 renal): > 10 µM
